# Measurements reported in ChEMBL document CHEMBL5346930, “Discovery of novel N-benzylarylamide-dithiocarbamate based derivatives as dual inhibitors of tubulin polymerization and LSD1 that inhibit gastric cancers” (Eur J Med Chem, 2023).
# Calls of active or inactive are those of the source. The calls are words filed in the database; no cut-off is given here.
# Legend:
# [1] = system: HCT-116; assay: cells; settings: Homo sapiens, HCT-116, 48 h
# Description: Antiproliferative activity against human HCT-116 cells assessed as inhibition of cell growth incubated for 48 hrs by MTT assay
# [2] = system: MGC-803; assay: cells; settings: Homo sapiens, MGC-803, 48 h
# Description: Antiproliferative activity against human MGC-803 cells assessed as inhibition of cell growth incubated for 48 hrs by MTT assay
# [3] = system: KYSE-450; assay: cells; settings: Homo sapiens, KYSE-450, 48 h
# Description: Antiproliferative activity against human KYSE-450 cells assessed as inhibition of cell growth incubated for 48 hrs by MTT assay
# [4] = molecular target: Lysine-specific histone demethylase 1A (Homo sapiens, UniProt O60341); assay: Inhibition of recombinant LSD1 (unknown origin) using H3K4me2 peptide as substrate preincubated for 10 mins followed by substrate addition and measured after 30 mins by amplex red based fluorescence microplate reader analysis
# [5] = system: MGC-803; assay: Antitumor activity against human MGC-803 cells xenografted in BALB/c nude mouse assessed as reduction in tumor weight at 25 mg/kg/day, ip administered every day for 21 days; type: functional, organism-based; settings: time 21.0 day
# [6] = system: MGC-803; assay: Antitumor activity against human MGC-803 cells xenografted in BALB/c nude mouse assessed as tumor growth inhibition at 25 mg/kg/day, ip administered every day for 21 days; type: functional, organism-based; settings: time 21.0 day
# [7] = system: MGC-803; assay: Antitumor activity against human MGC-803 cells xenografted in BALB/c nude mouse assessed as reduction in tumor volume at 25 mg/kg/day, ip administered every day for 21 days; type: functional, organism-based; settings: time 21.0 day
IC50 [1] [µM],IC50 [2] [µM],IC50 [3] [µM],IC50 [4] [µM],Structure (SMILES),Activity [5],Activity [6],Activity [7]
0.12,0.19,0.21,–,COc1ccc(CN(C(=O)CSC(=S)N2CCN(C=O)CC2)c2cc(OC)c(OC)c(OC)c2)cc1O,–,–,–
–,0.46,0.34,–,COc1ccc(CN(C(=O)CSC(=S)N2CCN(C(C)=O)CC2)c2cc(OC)c(OC)c(OC)c2)cc1O,–,–,–
0.8,0.56,0.46,–,COc1ccc(CN(C(=O)CSC(=S)N2CCC(O)CC2)c2cc(OC)c(OC)c(OC)c2)cc1O,–,–,–
0.078,0.062,0.052,–,COc1ccc(CN(C(=O)CSC(=S)N2CCN(c3ccccc3)CC2)c2cc(OC)c(OC)c(OC)c2)cc1O,–,–,–
0.22,0.084,0.078,2.67,COc1ccc(CN(C(=O)CSC(=S)N2CCN(C(=O)OC(C)(C)C)CC2)c2cc(OC)c(OC)c(OC)c2)cc1O,–,–,–
0.1,0.12,0.2,–,COc1ccc(CN(C(=O)CSC(=S)N2CCN(C(=O)C3CC3)CC2)c2cc(OC)c(OC)c(OC)c2)cc1O,–,–,–
0.089,0.079,0.069,–,CCOC(=O)N1CCN(C(=S)SCC(=O)N(Cc2ccc(OC)c(O)c2)c2cc(OC)c(OC)c(OC)c2)CC1,–,–,–
0.046,0.039,0.067,–,COc1ccc(CN(C(=O)CSC(=S)N2CCN(c3ccc(F)cc3)CC2)c2cc(OC)c(OC)c(OC)c2)cc1O,–,–,–
0.051,0.027,0.036,–,COc1ccc(CN(C(=O)CSC(=S)N2CCN(c3ccc(Br)cc3)CC2)c2cc(OC)c(OC)c(OC)c2)cc1O,–,–,–
0.23,0.31,0.28,–,COC(=O)C1CCN(C(=S)SCC(=O)N(Cc2ccc(OC)c(O)c2)c2cc(OC)c(OC)c(OC)c2)CC1,–,–,–
0.17,0.34,0.38,–,COc1ccc(CN(C(=O)CSC(=S)N2CCC(c3ccccc3)CC2)c2cc(OC)c(OC)c(OC)c2)cc1O,–,–,–
0.059,0.045,0.067,–,COc1ccc(N2CCN(C(=S)SCC(=O)N(Cc3ccc(OC)c(O)c3)c3cc(OC)c(OC)c(OC)c3)CC2)cc1,–,–,–
0.15,0.075,0.059,–,COc1cccc(N2CCN(C(=S)SCC(=O)N(Cc3ccc(OC)c(O)c3)c3cc(OC)c(OC)c(OC)c3)CC2)c1,–,–,–
0.69,0.7,0.67,–,CCOC(=O)C1CCN(C(=S)SCC(=O)N(Cc2ccc(OC)c(O)c2)c2cc(OC)c(OC)c(OC)c2)CC1,–,–,–
–,0.25,0.31,–,CCN1CCN(C(=S)SCC(=O)N(Cc2ccc(OC)c(O)c2)c2cc(OC)c(OC)c(OC)c2)CC1,–,–,–
0.097,0.03,0.073,–,CCCCN1CCN(C(=S)SCC(=O)N(Cc2ccc(OC)c(O)c2)c2cc(OC)c(OC)c(OC)c2)CC1,–,–,–
0.6,1.26,0.89,–,COc1ccc(CN(C(=O)CSC(=S)N2CCC(OC)CC2)c2cc(OC)c(OC)c(OC)c2)cc1O,–,–,–
0.52,0.54,0.49,–,COc1ccc(CN(C(=O)CSC(=S)N2CCN(CCO)CC2)c2cc(OC)c(OC)c(OC)c2)cc1O,–,–,–

IC50 [1] [µM],IC50 [2] [µM],IC50 [3] [µM],IC50 [4] [µM],Structure (SMILES),Activity [5],Activity [6],Activity [7]
0.1,0.078,0.086,–,COc1ccc(CN(C(=O)CSC(=S)N2CCN(c3ccc(O)cc3)CC2)c2cc(OC)c(OC)c(OC)c2)cc1O,–,–,–
0.054,0.028,0.062,–,C/C=C/C(=O)N(Cc1ccc(OC)c(O)c1)c1cc(OC)c(OC)c(OC)c1,–,–,–
0.64,0.48,0.53,–,COc1ccc(CN(C(=O)CSC(=S)N2CCCC(C)C2)c2cc(OC)c(OC)c(OC)c2)cc1O (stereo not given),–,–,–
0.5,0.23,0.43,–,COc1ccc(CN(C(=O)CSC(=S)N2CCN(S(C)(=O)=O)CC2)c2cc(OC)c(OC)c(OC)c2)cc1O,–,–,–
0.079,0.026,0.037,–,COc1ccc(CN(C(=O)CSC(=S)N2CCN(c3ccc(C#N)cc3)CC2)c2cc(OC)c(OC)c(OC)c2)cc1O,–,–,–
0.11,0.18,0.2,–,COc1ccc(CN(C(=O)CSC(=S)N2CCC(C(=O)OC(C)(C)C)CC2)c2cc(OC)c(OC)c(OC)c2)cc1O,–,–,–
0.16,0.14,0.16,–,COC(=O)N1CCN(C(=S)SCC(=O)N(Cc2ccc(OC)c(O)c2)c2cc(OC)c(OC)c(OC)c2)CC1,–,–,–
0.16,0.1,0.17,–,COc1ccc(CN(C(=O)CSC(=S)N2CCN(C(C)C)CC2)c2cc(OC)c(OC)c(OC)c2)cc1O,–,–,–
0.48,0.12,0.21,–,COc1ccc(CN(C(=O)CSC(=S)N2CCN(C3CC3)CC2)c2cc(OC)c(OC)c(OC)c2)cc1O,–,–,–
0.24,0.12,0.32,–,COc1ccc(CN(C(=O)CSC(=S)N2CCN(c3ccccc3OC)CC2)c2cc(OC)c(OC)c(OC)c2)cc1O,–,–,–
12.8,2.81,> 20,–,Cc1ccc(Cn2cc(CSC(=S)N3CCN(C(=O)OC(C)(C)C)CC3)nn2)cc1,–,–,–
0.067,0.054,0.072,–,COc1ccc(CN(C(=O)CSC(=S)N2CCN(c3ccc([N+](=O)[O-])cc3)CC2)c2cc(OC)c(OC)c(OC)c2)cc1O,–,–,–
0.89,0.38,0.86,–,COc1ccc(CN(C(=O)CSC(=S)N2CCC(C)CC2)c2cc(OC)c(OC)c(OC)c2)cc1O,–,–,–
0.62,0.43,0.7,–,COc1ccc(CN(C(=O)CSC(=S)N2CCN(C(C)(C)C)CC2)c2cc(OC)c(OC)c(OC)c2)cc1O,–,–,–
0.059,0.038,0.045,–,COc1ccc(CN(C(=O)CSC(=S)N2CCN(c3ccc(Cl)cc3)CC2)c2cc(OC)c(OC)c(OC)c2)cc1O,–,–,–
0.82,0.27,0.75,–,COc1ccc(CN(C(=O)CSC(=S)N2CCN(C)CC2)c2cc(OC)c(OC)c(OC)c2)cc1O,–,–,–
–,–,–,–,COc1ccc(/C=C\c2cc(OC)c(OC)c(OC)c2)cc1O,Active,Active,Active

Structure (SMILES),IC50 [1] [µM],IC50 [2] [µM],IC50 [3] [µM],IC50 [4] [µM],Activity [5],Activity [6],Activity [7]
NC1CCC(N[C@@H]2C[C@H]2c2ccccc2)CC1 (stereo not given in full),> 20,> 20,> 20,–,–,–,–
COc1cc2c(c(OC)c1OC)-c1ccc(OC)c(=O)cc1[C@@H](NC(C)=O)CC2 [COLCHICINE],0.078,0.056,0.07,–,–,–,–
